Structures can show the parent of a compound that is named as a salt.
Biological target: T1, BRD4 BD1 (Homo sapiens, UniProt O60885, Y390A)
T1 construct: BRD4 (1-477) (Y97A) and (Y390A); made in house; host or cells: E. coli (pET15b vector)
Assay: TR-FRET binding assay, BRD4 BD1 (mutant protein)
Conditions: BRD4 (1-477) mutant, 10 nM protein, read-out: pIC50 in the BRD4 BD1 assay (converted)
Method: Time Resolved Fluorescence Resonance Energy Transfer (TR-FRET) Assay
Binding was assessed using a time resolved fluorescent resonance energy transfer binding assay. This utilises a 6 His purification tag at the N-terminal of the proteins as an epitope for an anti-6 His antibody labeled with Europium chelate (PerkinElmer AD0111) allowing binding of the Europium to the proteins which acts as the donor fluorophore. A small molecule, high affinity binder of the bromodomains BRD2, BRD3, BRD4 and BRDT has been labeled with Alexa Fluor647 (Reference Compound X) and this acts as the acceptor in the FRET pair.
Assay Principle: In the absence of a competing compound, excitation of the Europium causes the donor to emit at λ618 nm which excites the Alexa labelled bromodomain binding compound leading to an increased energy transfer that is measurable at λ647 […]. In the presence of a sufficient concentration of a compound that can bind these proteins, the interaction is disrupted leading to a quantifiable drop in fluorescent resonance energy transfer.
The binding of the compounds of formula (I) to Bromodomains BRD2, BRD3, BRD4 and BRDT was assessed using mutated proteins to detect differential binding to either Binding Domain 1 (BD1) or Binding Domain 2 (BD2) on the bromodomain. These single residue mutations in the acetyl lysine binding pocket greatly lower the affinity of the fluoroligand (Reference Compound X) for the mutated domain (>1000 fold selective for the non-mutated domain). Therefore in the final assay conditions, binding of the fluoroligand to the mutated domain cannot be detected and subsequently the assay is suitable to determine the binding of compounds to the single non-mutated bromodomain.
Protein production: Recombinant Human Bromodomains [(BRD2 (1-473) (Y113A) and (Y386A), BRD3 (1-435) (Y73A) and (Y348A) BRD4 (1-477) (Y97A) and (Y390A) and BRDT (1-397) (Y66A) and (Y309A)] were expressed in E. coli cells (in pET15b vector for BRD2/3/4 and in pET28a vector for BRDT) with a 6-His tag at the N-terminal. The His-tagged Bromodomain pellet was resuspended in 50 mM HEPES (pH7.5), 300 mM NaCl, 10 mM imidazole & 1 μl/mL protease inhibitor cocktail and extracted from the E. coli cells using sonication and purified using a nickel sepharose high performance column, the proteins were washed and then eluted with a linear gradient of 0-500 mM imidazole with buffer 50 mM HEPES (pH7.5), 150 mM NaCl, 500 mM imidazole, over 20 column volumes. Final purification was completed by Superdex 200 prep grade size exclusion column. Purified protein was stored at −80° C. in 20 mM HEPES pH 7.5 and 100 mM NaCl. Protein identity was confirmed by peptide mass fingerprinting and predicted molecular weight confirmed by mass spectrometry.
Protocol for Bromodomain BRD2, 3, 4 and T, BD1^+BD2 mutant assays: All assay components were dissolved in buffer composition of 50 mM HEPES pH7.4, 50 mM NaCl, 5% Glycerol, 1 mM DTT and 1 mM CHAPS. The final concentration of bromodomain proteins were 10 nM and the Alexa Fluor647 ligand was at Kd. These components were premixed and 5 μl of this reaction mixture was added to all wells containing 50 nl of various concentrations of test compound or DMSO vehicle (0.5% DMSO final) in Greiner 384 well black low volume microtitre plates and incubated in dark for 30 minutes at room temperature. 5 μl of detection mixture containing 1.5 nM final concentration anti-6His Europium chelate was added to all wells and a further dark incubation of at least 30 minutes was performed. Plates were then read on the Envision platereader, (λex=317 nm, donor λem=615 nm; acceptor λem=665 nm; Dichroic LANCE dual). Time resolved fluorescent intensity measurements were made at both emission wavelengths and the ratio of acceptor/donor was calculated and used for data analysis. All data was normalized to the mean of 16 high (inhibitor control—Example 11 of WO 2011/054846A1) and 16 low (DMSO) control wells on each plate. […]

| IC50 | SMILES |
| --- | --- |
| ≤ 100 nM | CC(c1cc2c(=O)n(C)cc(-c3ccnc(OCC4CCOCC4)c3)c2o1)N1CCN(S(C)(=O)=O)CC1 (single isomer, unassigned) [Example 21a, 5-methyl-2-(1-(4-(methylsulfonyl)piperazin-1-yl)ethyl)-7-(2-((tetrahydro-2H-pyran-4-yl)methoxy)pyridin-4-yl)furo[3,2-c]pyridin-4(5H)-one] |
| ≤ 100 nM | COc1ccc(-c2cn(C)c(=O)c3cc(CN4CCN(S(C)(=O)=O)CC4)oc23)cc1OC [Example 1, 7-[3,4-bis(methyloxy)phenyl]-5-methyl-2-{[4-(methylsulfonyl)-1-piperazinyl]methyl}furo[3,2-c]pyridin-4(5H)-one] |
| ≤ 100 nM | CC(=O)Nc1cc(-c2cn(C)c(=O)c3cc(CN4CCN(S(C)(=O)=O)C[C@H]4C)oc23)ccn1 [Example 2, (R)—N-(4-(5-methyl-2-((2-methyl-4-(methylsulfonyl)piperazin-1-yl)methyl)-4-oxo-4,5-dihydrofuro[3,2-c]pyridin-7-yl)pyridin-2-yl)acetamide] |
| ≤ 100 nM | Cn1cc(-c2cccc(OCc3ccccc3)c2)c2oc(CN3CCN(S(C)(=O)=O)CC3)cc2c1=O [Example 3, 7-(3-(benzyloxy)phenyl)-5-methyl-2-((4-(methylsulfonyl)piperazin-1-yl)methyl)furo[3,2-c]pyridin-4(5H)-one] |
| ≤ 100 nM | Cn1cc(-c2cccc(NCc3ccccc3)c2)c2oc(CN3CCN(S(C)(=O)=O)CC3)cc2c1=O [Example 4, 7-(3-(benzylamino)phenyl)-5-methyl-2-((4-(methylsulfonyl)piperazin-1-yl)methyl)furo[3,2-c]pyridin-4(5H)-one] |
| ≤ 100 nM | Cn1cc(-c2ccnc(OCC3CCOCC3)c2)c2oc(CN3CCN(S(C)(=O)=O)CC3)cc2c1=O [Example 7, 5-methyl-2-((4-(methylsulfonyl)piperazin-1-yl)methyl)-7-(2-((tetrahydro-2H-pyran-4-yl)methoxy)pyridin-4-yl)furo[3,2-c]pyridin-4(5H)-one] |
| ≤ 100 nM | COc1ccc(-c2cn(C)c(=O)c3cc(CN4CCN(S(C)(=O)=O)C[C@H]4C)oc23)cc1OC [Example 10, (R)-7-(3,4-dimethoxyphenyl)-5-methyl-2-((2-methyl-4-(methylsulfonyl)piperazin-1-yl)methyl)furo[3,2-c]pyridin-4(5H)-one] |
| ≤ 100 nM | CC(Oc1cncc(-c2cn(C)c(=O)c3cc(CN4CCN(S(C)(=O)=O)CC4)oc23)c1)c1ccccc1 (stereo not shown) [Example 12, 5-methyl-2-((4-(methylsulfonyl)piperazin-1-yl)methyl)-7-(5-(1-phenylethoxy)pyridin-3-yl)furo[3,2-c]pyridin-4(5H)-one] |
| ≤ 100 nM | CC(Nc1cc(-c2cn(C)c(=O)c3cc(CN4CCN(S(C)(=O)=O)CC4)oc23)ccn1)c1ccccc1 (stereo not shown) [Example 14, 5-methyl-2-((4-(methylsulfonyl)piperazin-1-yl)methyl)-7-(2-((1-phenylethyl)amino)pyridin-4-yl)furo[3,2-c]pyridin-4(5H)-one] |
| ≤ 100 nM | CC(Nc1cccc(-c2cn(C)c(=O)c3cc(CN4CCN(S(C)(=O)=O)CC4)oc23)c1)c1ccccc1 (stereo not shown) [Example 15, 5-methyl-2-((4-(methylsulfonyl)piperazin-1-yl)methyl)-7-(3-((1-phenylethyl)amino)phenyl)furo[3,2-c]pyridin-4(5H)-one] |
| ≤ 100 nM | CC(c1cc2c(=O)n(C)cc(-c3ccnc(OCC4CCOCC4)c3)c2o1)N1CCN(S(C)(=O)=O)CC1 (stereo not shown) [Example 21, 5-methyl-2-(1-(4-(methylsulfonyl)piperazin-1-yl)ethyl)-7-(2-((tetrahydro-2H-pyran-4-yl)methoxy)pyridin-4-yl)furo[3,2-c]pyridin-4(5H)-one formate] |
| ≤ 100 nM | C[C@@H]1CN(S(C)(=O)=O)CCN1Cc1cc2c(=O)n(C)cc(-c3ccnc(OCC4CC4)c3)c2o1 [Example 23, (R)-7-(2-(cyclopropylmethoxy)pyridin-4-yl)-5-methyl-2-((2-methyl-4-(methylsulfonyl)piperazin-1-yl)methyl)furo[3,2-c]pyridin-4(5H)-one] |
| ≤ 100 nM | C[C@@H]1CN(S(C)(=O)=O)CCN1Cc1cc2c(=O)n(C)cc(-c3ccnc(NC(=O)C4CC4)c3)c2o1 [Example 24, (R)—N-(4-(5-methyl-2-((2-methyl-4-(methylsulfonyl)piperazin-1-yl)methyl)-4-oxo-4,5-dihydrofuro[3,2-c]pyridin-7-yl)pyridin-2-yl)cyclopropanecarboxamide] |
| ≤ 100 nM | CCC(=O)Nc1cc(-c2cn(C)c(=O)c3cc(CN4CCN(S(C)(=O)=O)C[C@H]4C)oc23)ccn1 [Example 25, (R)—N-(4-(5-methyl-2-((2-methyl-4-(methylsulfonyl)piperazin-1-yl)methyl)-4-oxo-4,5-dihydrofuro[3,2-c]pyridin-7-yl)pyridin-2-yl)propionamide] |
| ≤ 100 nM | COCCOc1cc(-c2cn(C)c(=O)c3cc(CN4CCN(S(C)(=O)=O)C[C@H]4C)oc23)ccn1 [Example 26, (R)-7-(2-(2-methoxyethoxy)pyridin-4-yl)-5-methyl-2-((2-methyl-4-(methylsulfonyl)piperazin-1-yl)methyl)furo[3,2-c]pyridin-4(5H)-one] |
| ≤ 100 nM | C[C@@H]1CN(S(C)(=O)=O)CCN1Cc1cc2c(=O)n(C)cc(-c3ccnc(OCCN4CCCC4)c3)c2o1 [Example 27, (R)-5-methyl-2-((2-methyl-4-(methylsulfonyl)piperazin-1-yl)methyl)-7-(2-(2-(pyrrolidin-1-yl)ethoxy)pyridin-4-yl)furo[3,2-c]pyridin-4(5H)-one] |
| ≤ 100 nM | CC(=O)N(C)c1cc(-c2cn(C)c(=O)c3cc(CN4CCN(S(C)(=O)=O)C[C@H]4C)oc23)ccn1 [Example 30, (R)—N-methyl-N-(4-(5-methyl-2-((2-methyl-4-(methylsulfonyl)piperazin-1-yl)methyl)-4-oxo-4,5-dihydrofuro[3,2-c]pyridin-7-yl)pyridin-2-yl)acetamide] |
| ≤ 100 nM | Cn1cc(-c2ccncc2OCC2CC2)c2oc(CN3CCN(S(C)(=O)=O)CC3)cc2c1=O [Example 31, 7-(3-(cyclopropylmethoxy)pyridin-4-yl)-5-methyl-2-((4-(methylsulfonyl)piperazin-1-yl)methyl)furo[3,2-c]pyridin-4(5H)-one] |
| ≤ 10 nM | C[C@@H]1CN(S(C)(=O)=O)CCN1Cc1cc2c(=O)n(C)cc(-c3ccncc3OCC3CC3)c2o1 [Example 32, (R)-7-(3-(cyclopropylmethoxy)pyridin-4-yl)-5-methyl-2-((2-methyl-4-(methylsulfonyl)piperazin-1-yl)methyl)furo[3,2-c]pyridin-4(5H)-one] |
| ≤ 100 nM | Cn1cc(-c2ccnc(NCc3ccccn3)c2)c2oc(CN3CCCNCC3)cc2c1=O [Example 34, 2-((1,4-diazepan-1-yl)methyl)-5-methyl-7-(2-((pyridin-2-ylmethyl)amino)pyridine-4-yl)furo[3,2-c]pyridin-4(5H)-one hydrochloride] |
| ≤ 10 nM | C[C@@H]1CN(S(C)(=O)=O)CCN1Cc1cc2c(=O)n(C)cc(-c3ccnc(OCCN4CCCC4=O)c3)c2o1 [Example 35, (R)-5-methyl-2-((2-methyl-4-(methylsulfonyl)piperazin-1-yl)methyl)-7-(2-(2-(2-oxopyrrolidin-1-yl)ethoxy)pyridin-4-yl)furo[3,2-c]pyridin-4(5H)-one] |
| ≤ 100 nM | CC(=O)Nc1cc(-c2cn(C)c(=O)c3cc(C(C)N4CCN(S(C)(=O)=O)CC4)oc23)ccn1 (stereo not shown) [Example 36, N-(4-(5-methyl-2-(1-(4-(methylsulfonyl)piperazin-1-yl)ethyl)-4-oxo-4,5-dihydrofuro[3,2-c]pyridin-7-yl)pyridin-2-yl)acetamide, formic acid salt] |
